Patent US8105608B2, “Method of treatment using ligand-immunogen conjugates” (Purdue Research Foundation, priority 2000, dated 2012)

Test system: M109 cells
Test: Survival of mice with M109 cells implanted intraperitoneally close to the liver
Format: in vivo
Conditions: Example 16; folate-FITC 1500 nmoles/kg, IFN-α 7.5×10^4 units/day days 7, 8, 9, 11, 14; FITC-KLH immunized; 5 mice per group; PBS 17 days
Procedure: Furthermore, in an effort to reduce the time required to obtain long-term survival data, the tumor cells were implanted intraperitoneally close to the liver. […] Aminofluorescein was injected along with the various cytokine combinations as a control because this compound is not linked to folate and will not retarget anti-fluorescein antibodies to tumor cells.
Each mouse was injected with 0.2 ml of a 1:10 dilution of the antibody stock solution on days 1, 4, 9, and 14 after tumor implantation to achieve NK cell depletion.
Additionally, the animals were immunized with FITC-labeled keyhole limpit hemocyanin (KLH) rather than FITC-labeled BSA.
Aminofluorescein was injected along with the IL-2, IFN-α cytokine combination as a control because this compound is not linked to folate and will not retarget anti-fluorescein antibodies to tumor cells.
Additionally, the animals were immunized with DNP-labeled keyhole limpit hemocyanin (KLH).
Additionally, the animals (5 mice per group) were immunized with FITC-labeled keyhole limpit hemocyanin (KLH) rather than FITC-labeled BSA.

**Q.** With IFN-α as the substance, how does the median survival time read?
**A.** The median survival time was 17 days.
